In this assay the target is T1, Tyrosinase (Agaricus bisporus, UniProt O42713).
T1 sequence (O42713 whole entry): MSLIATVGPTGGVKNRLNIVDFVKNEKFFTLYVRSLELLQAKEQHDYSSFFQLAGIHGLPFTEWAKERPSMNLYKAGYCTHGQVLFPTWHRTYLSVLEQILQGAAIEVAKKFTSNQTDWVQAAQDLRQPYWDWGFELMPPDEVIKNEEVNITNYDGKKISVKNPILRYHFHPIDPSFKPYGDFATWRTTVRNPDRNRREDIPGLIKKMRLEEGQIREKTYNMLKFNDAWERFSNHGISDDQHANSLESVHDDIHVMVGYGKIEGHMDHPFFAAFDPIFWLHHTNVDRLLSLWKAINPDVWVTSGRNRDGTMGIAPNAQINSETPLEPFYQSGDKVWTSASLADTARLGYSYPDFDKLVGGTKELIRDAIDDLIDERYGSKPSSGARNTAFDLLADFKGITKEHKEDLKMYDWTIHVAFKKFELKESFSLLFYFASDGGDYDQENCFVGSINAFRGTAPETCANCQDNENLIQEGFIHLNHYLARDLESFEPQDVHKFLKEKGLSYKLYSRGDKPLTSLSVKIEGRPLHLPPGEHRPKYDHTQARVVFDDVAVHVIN
Description: Inhibition of mashroom tyrosinase

`Nn1c(-c2ccc(O)cc2)n[nH]c1=S` registered a Ki of 2.4 µM.

As for `S=c1[nH]nc(-c2n[nH]c(=S)s2)s1`, the Ki stood at 2.9 µM.

`S=c1[nH]nc(-c2ccccc2)o1`: affinity was put at a Ki of 6.47 µM.

`Sc1nnc(Cc2ccccc2)o1` registered a Ki of 3.67 µM.

For the compound `NNC(=O)c1ccc(OCc2ccccc2)cc1`, the affinity, expressed as Ki, was 49 µM.

`S=c1[nH]nc(-c2n[nH]c(=S)o2)o1`: the Ki turned out to be 69.4 µM.

Turning to `S=c1[nH]nc(-c2cccc3ccccc23)o1`, the affinity, expressed as Ki, was 33.6 µM.

With `NNC(=O)c1ccc(O)cc1`, the Ki stood at 177 µM. Against the preceding compound, the Ki is about 5.3-fold higher.

Take `NNC(=O)c1ccc2ccccc2c1`: the affinity, expressed as Ki, was 99.6 µM.

In the case of `Oc1ccc(-c2nnc(S)o2)cc1`, the affinity, expressed as Ki, was 1.77 µM. This Ki is about 56-fold lower than that of the compound before.

Take `S=c1[nH]nc(C2CCCCC2)o1`: the Ki was 4.94 µM.

In the case of `Nn1c(-c2ccncc2)n[nH]c1=S`, affinity was put at a Ki of 1.01 µM.

On to `Sc1nnc(-c2ccncc2)o1`, for which the affinity corresponds to a Ki of 14.2 µM. Compared with the last compound, the Ki is about 14-fold higher.

`S=c1[nH]nc(C(c2ccccc2)c2ccccc2)s1` registered a Ki of 5.2 µM. Compared with the last compound, the Ki is about 2.7-fold lower.

In turn, `Sc1nnc(C(c2ccccc2)c2ccccc2)o1` came in with a Ki of 6.76 µM.

Consider `Sc1nnc(CCCc2nnc(S)o2)o1`, for which affinity was put at a Ki of 1.9 µM.

On to `Sc1nnc(-c2cccc(OCc3ccccc3)c2)o1`, for which the Ki stood at 3.64 µM.

`Sc1nnc(Cc2nnc(S)s2)s1` showed a Ki of 0.49 µM.

As to `Oc1cccc(-c2nnc(S)o2)c1`, the Ki came to 18.5 µM. This Ki lies about 38-fold higher than the previous one.

Compound `CC(C)(C)[Si](C)(C)Oc1ccc(-c2nnc(S)s2)cc1` gave a Ki of 0.53 µM.

`Oc1ccc(-c2nnc(S)s2)cc1` yielded a Ki of 0.19 µM.

In turn, `S=c1[nH]nc(-c2ccncc2)s1` registered a Ki of 2.47 µM.

Compound `Sc1nnc(-c2ccccc2)s1` gave a Ki of 1.31 µM. Compared with the last compound, the Ki is about 1.9-fold lower.

Take `S=c1[nH]nc(-c2ccc(OCc3ccccc3)cc2)o1`: the Ki was 1.35 µM.

For `Sc1nnc(Cc2nnc(S)o2)o1`, the Ki stood at 4.42 µM.

Values taken from ChEMBL document CHEMBL1165921, “New potent inhibitors of tyrosinase: novel clues to binding of 1,3,4-thiadiazole-2(3H)-thiones, 1,3,4-oxadiazole-2(3H)-thiones, 4-amino-1,2,4-triazole-5(4H)-thiones, and substituted hydrazides to the dicopper active site” (Bioorg Med Chem, 2010).
